According to patent US6849656B1, “Indole-containing and combretastatin-related anti-mitotic and anti-tubulin polymerization agents” (Baylor University, priority 1999, dated 2005):
Converted amounts (≈) assume the structure as drawn. Where two headings read alike, the source gives them in different places.

Experiments:
[1] = system: NCI-H460 (Lung-NSC); test: cells; assay type: cell-based
Experimental: (§1) 3-(3′,4′,5′-Trimethoxybenzoyl)-2-(4′-methoxyphenyl)-6-methoxyindole was evaluated in terms of growth inhibitory activity against several human cancer cell lines, including pancreas, ovarian, CNS, lung-NSC, colon, and prostate lines. The assay used is described in Monks et al. Briefly, the cell suspensions, diluted according to the particular cell type and the expected target cell density (5,000-40,000 cells per well based on cell growth characteristics), were added by pipet (100 μl) to 96-well microtiter plates. Inoculates were allowed a preincubation time of24-28 hours at 37° C. for stabilization. Incubation with the inhibitor compounds lasted for 48 hours in 5% CO2 atmosphere and 100% humidity. Determination of cell growth was done by in situ fixation of cells, followed by staining with a protein-binding dye, sulforhodamine B (SRB), which binds to the basic amino acids of cellular macromolecules. The solubilized stain was measured spectrophotometrically. G150 is defined as the dosage required to inhibit tumor cell growth by 50%.

[2] = system: DU-145 (Prostate); test: Growth inhibition of human cancer cell line DU-145; assay type: cell-based
Experimental: as §1

[3] = system: SW1736 (Thyroid ca); test: Growth inhibition of human cancer cell line SW1736; assay type: cell-based; settings: SW-1736, SW1736, Table I
[4] = system: SK-N-SH (Neuroblast); test: Growth inhibition of human cancer cell line SK-N-SH; assay type: cell-based; settings: Table I
[5] = system: FADU (Pharynx-sqam); test: Growth inhibition of human cancer cell line FADU; assay type: cell-based; settings: Table I
[6] = system: BXPC-3 (Pancreas-a); test: Growth inhibition of human cancer cell line BXPC-3; assay type: cell-based
Experimental: as §1

[7] = system: T1, purified tubulin; test: Inhibition of tubulin polymerization assay; assay type: biochemical, bovine
T1 construct: other: at 4 pM
Experimental: IC50 values for tubulin polymerization were determined according to the procedure described in Bai et al. Purified tubulin is obtained from bovine brain cells as described in Hamel and Lin. Various amounts of inhibitor were preincubated for 15 minutes at 37° C. with purified tubulin. After the incubation period, the reaction was cooled and GTP was added to induce tubulin polymerization. Polymerization was then monitored in a Gilford spectrophotometer at 350 nm. The final reaction mixtures (0.25 ml) contained 1.5 mg/ml tubulin, 0.6 mg/ml microtubule-associated proteins (MAPs), 0.5 mM GTP, […], 4% DMSO and 0.1M 4-morpholineethanesulfonate buffer (MES, pH 6.4). IC50 is the amount of inhibitor needed to inhibit tubulin polymerization 50% with respect to the amount of […] that occurs in the absence of inhibitor.

[8] = system: OVCAR-3 (Ovarian); settings: data from synthesis of phenstatin phosphate (Pettit); cited from earlier work
[9] = system: SF-295 (CNS); settings: data from synthesis of phenstatin phosphate (Pettit); cited from earlier work
[10] = system: KM20L2 (Colon); settings: data from synthesis of phenstatin phosphate (Pettit); cited from earlier work
[11] = system: purified tubulin; settings: reported by Pettit and co-workers, cited from earlier work; for IC50: read-out: IC50 for inhibition of tubulin polymerization
[12] = system: NCI-H460 (Lung-NSC); settings: data from synthesis of phenstatin phosphate (Pettit); cited from earlier work
[13] = system: KM20L2 (Colon); test: Growth inhibition of human cancer cell line KM20L2; assay type: cell-based
Experimental: as §1

[14] = system: P388 leukemia cells; test: Cytotoxic assay with P388 leukemia cells; assay type: cell-based
[15] = system: SF-295 (CNS); test: Growth inhibition of human cancer cell line SF-295; assay type: cell-based
Experimental: as §1

[16] = system: OVCAR-3 (Ovarian); test: Growth inhibition of human cancer cell line OVCAR-3; assay type: cell-based
Experimental: as §1

[17] = read-out: IC50 for inhibition of tubulin polymerization

In the case of COc1ccc(-c2c(C(=O)c3cc(OC)c(OC)c(OC)c3)oc3cc(OC)ccc23)cc1 [2-(3′,4′,5′-trimethoxybenzoyl)-3-(4′-methoxyphenyl)-6-methoxybenzo[b]furan, reference compound], the GI50 ([1]; Homo sapiens, NCI-H460, Table I, read-out: GI50) is reported as 0.041 µg/mL (≈ 0.0914 µM), the GI50 ([2]; Homo sapiens, DU-145, Table I, read-out: GI50) is reported as 0.062 µg/mL (≈ 0.138 µM) and the GI50 [3] is reported as 0.047 µg/mL (≈ 0.105 µM). For the same compound, the GI50 [4] was 0.025 µg/mL (≈ 0.0557 µM), the GI50 [5] was 0.035 µg/mL (≈ 0.078 µM) and the GI50 ([6]; Homo sapiens, BXPC-3, Table I, read-out: GI50) was 0.038 µg/mL (≈ 0.0847 µM).

Work on COc1ccc(-c2[nH]c3cc(OC)ccc3c2C(=O)c2cc(OC)c(OC)c(OC)c2)cc1 [3-(3′,4′,5′-trimethoxybenzoyl)-2-(4′-methoxyphenyl)-6-methoxyindole] yielded an IC50 [7, 17] of 500 to 1500 nM.

Compound COc1ccc(/C=C\c2cc(OC)c(OC)c(OC)c2)cc1N [Amine-CA-4 8] has an IC50 [7, 17] of 1200 ± 20 nM and a GI50 ([1]; Homo sapiens, NCI-H460, read-out: GI50) of 0.00068 µg/mL (≈ 0.00216 µM).

For COc1ccc(/C=C\c2cc(OC)c(OC)c(OC)c2)cc1OP(=O)(O)O [Combretastatin A-4 Prodrug], the GI50 [8] is given as 0.023 µg/mL (≈ 0.058 µM), the GI50 [9] is given as 0.036 µg/mL (≈ 0.0908 µM) and the GI50 [10] is given as 0.34 µg/mL (≈ 0.858 µM). The “inhibition of tubulin polymerization” value [11] was “no inhibition”, the IC50 [11] was greater than 80000 nM and the GI50 [12] was 0.029 µg/mL (≈ 0.0732 µM).

In the case of COc1ccc(-c2[nH]c3cc(OC)ccc3c2C(=O)c2cc(OC)c(OC)c(OC)c2)cc1 [Indole-based Ligand 33, 3-(3′,4′,5′-trimethoxybenzoyl)-2-(4′-methoxyphenyl)-6-methoxyindole], the GI50 ([13]; Homo sapiens, KM-20L2, KM20L2, 48 hours, SRB, read-out: GI50) is reported as 0.0017 µg/mL (≈ 0.0038 µM), the “ED50 (effective dosage required to inhibit 50% of cell growth)” value ([14]; P388 leukemia cells) is reported as 0.0133 µg/mL and the GI50 ([1]; Homo sapiens, NCI-H460, 48 hours, SRB, read-out: GI50) is reported as 0.0026 µg/mL (≈ 0.00581 µM). The GI50 ([15]; Homo sapiens, SF-295, 48 hours, SRB, read-out: GI50) was 0.0024 µg/mL (≈ 0.00536 µM), the GI50 ([2]; Homo sapiens, DU-145, 48 hours, SRB, read-out: GI50) was 0.0023 µg/mL (≈ 0.00514 µM) and the GI50 ([6]; Homo sapiens, BXPC-3, 48 hours, SRB, read-out: GI50) was 0.002 µg/mL (≈ 0.00447 µM). For the same compound, the GI50 ([16]; Homo sapiens, OVCAR-3, 48 hours, SRB, read-out: GI50) was 0.0024 µg/mL (≈ 0.00536 µM).

In the case of COc1ccc(C(=O)c2cc(OC)c(OC)c(OC)c2)cc1OP(=O)(O)O [Phenstatin Prodrug], the GI50 [8] is given as 0.0025 µg/mL (≈ 0.00628 µM), the GI50 [9] is given as 0.012 µg/mL (≈ 0.0301 µM) and the GI50 [10] is given as 0.27 µg/mL (≈ 0.678 µM). The “activity in inhibition of tubulin polymerization compared to phenstatin” value [11] was 40%, the IC50 [11] was 21000 ± 3000 nM and the GI50 [12] was 0.035 µg/mL (≈ 0.0879 µM).

For COc1ccc(C(=O)c2cc(OC)c(OC)c(OC)c2)cc1O [Phenstatin, phenstatin], the GI50 [8] is listed as 0.0023 µg/mL (≈ 0.00723 µM), the GI50 [9] is listed as 0.052 µg/mL (≈ 0.163 µM) and the GI50 [10] is listed as 0.0004 µg/mL (≈ 0.00126 µM). The IC50 [11] was 1000 ± 200 nM and the GI50 [12] was 0.0057 µg/mL (≈ 0.0179 µM).

With CCOP(=O)(Nc1cc(/C=C\c2cc(OC)c(OC)c(OC)c2)ccc1OC)OCC [Phosphoramidate Analog 10, (Z)-1-(3′-Diethylphosphoramidate-4′-methoxyphenyl)-2-(3″,4″,5″-trimethoxyphenyl)ethene] the GI50 ([13]; KM20L2) was 0.28 µg/mL (≈ 0.62 µM), the LC50 ([13]; KM20L2) was greater than 10 µg/mL and the TGI ([13]; KM20L2) was 0.61 µg/mL (≈ 1.35 µM). The “activity in inhibition of tubulin polymerization” value [7] was “little if any activity”, the GI50 ([14]; P388) was 0.31 µg/mL (≈ 0.687 µM) and the GI50 ([1]; NCI-H460) was 0.35 µg/mL (≈ 0.775 µM). It also gave an LC50 ([1]; NCI-H460) greater than 10 µg/mL, a TGI ([1]; NCI-H460) greater than 10 µg/mL and a GI50 ([15]; SF-295) of 0.24 µg/mL (≈ 0.532 µM). The LC50 ([15]; SF-295) was greater than 10 µg/mL, the TGI ([15]; SF-295) was greater than 10 µg/mL and the GI50 ([2]; DU-145) was 0.26 µg/mL (≈ 0.576 µM). For the same compound, the LC50 ([2]; DU-145) was greater than 10 µg/mL, the TGI ([2]; DU-145) was 0.26 µg/mL (≈ 0.576 µM) and the GI50 ([6]; BXPC-3) was 0.15 µg/mL (≈ 0.332 µM). It also gave an LC50 ([6]; BXPC-3) greater than 10 µg/mL, a TGI ([6]; BXPC-3) of 0.57 µg/mL (≈ 1.26 µM) and a GI50 ([16]; OVCAR-3) of 0.19 µg/mL (≈ 0.421 µM). For the same compound, the LC50 ([16]; OVCAR-3) was greater than 10 µg/mL and the TGI ([16]; OVCAR-3) was 0.86 µg/mL (≈ 1.9 µM).

For COc1ccc(/C=C\c2cc(OC)c(OC)c(OC)c2)cc1O [combretastatin A-4, reference compound], the IC50 ([7]; read-out: 50% inhibition of the maximum tubulin assembly rate) is given as […] and the IC50 [11] is given as […].
